Measured values: PubChem BioAssay AID248 (DTP/NCI, 2004)
“And” between values parts separate entries of the source, which are not always exact repeats. Equal values may be shown once. Inconclusive results and toxic doses are left out.

Test system: L1210 leukemia ip in BDF1 mice, survival T/C
Assay: NCI In Vivo Anticancer Drug Screen. Data for tumor model L1210 Leukemia (intraperitoneal) in B6D2F1 (BDF1) mice
Conditions: higher = longer survival
Method in brief: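 Value reflects the ratio of survival in compound-treated mice to survival in vehicle-treated controls, with both groups carrying the same transplanted tumor.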

[1] = endpoint: mean survival time, dose: 100.0 mg/kg/injection, schedule: Q01DX001 (ip), vehicle: carboxymethylcellulose (CMC)
[2] = endpoint: mean survival time, dose: 200.0 mg/kg/injection, schedule: Q01DX001 (ip), vehicle: carboxymethylcellulose (CMC)
[3] = endpoint: mean survival time, dose: 100.0 mg/kg/injection, schedule: Q01DX001 (ip), vehicle: saline
[4] = endpoint: mean survival time, dose: 200.0 mg/kg/injection, schedule: Q01DX001 (ip), vehicle: saline
[5] = endpoint: mean survival time, dose: 100.0 mg/kg/injection, schedule: Q01DX009 (ip), vehicle: saline with Tween-80
[6] = endpoint: mean survival time, dose: 100.0 mg/kg/injection, schedule: Q04DX002 (ip), vehicle: saline with Tween-80
[7] = endpoint: mean survival time, dose: 200.0 mg/kg/injection, schedule: Q01DX009 (ip), vehicle: saline with Tween-80
[8] = endpoint: mean survival time, dose: 200.0 mg/kg/injection, schedule: Q04DX002 (ip), vehicle: saline with Tween-80
[9] = endpoint: mean survival time, dose: 400.0 mg/kg/injection, schedule: Q04DX002 (ip), vehicle: saline with Tween-80
[10] = endpoint: mean survival time, dose: 400.0 mg/kg/injection, schedule: Q01DX001 (ip), vehicle: carboxymethylcellulose (CMC)

CCCCC(CCCC)(S(=O)(=O)CC)S(=O)(=O)CC
T/C [1]: 104 % of control
T/C (endpoint: mean survival time, dose: 177.6 mg/kg/injection, schedule: Q01DX001 (ip), vehicle: carboxymethylcellulose (CMC)): 94 % of control and 104 % of control
T/C [2]: 89 % of control
T/C (endpoint: mean survival time, dose: 266.8 mg/kg/injection, schedule: Q01DX001 (ip), vehicle: carboxymethylcellulose (CMC)): 98 % of control and 88 % of control
T/C (endpoint: mean survival time, dose: 600.0 mg/kg/injection, schedule: Q01DX001 (ip), vehicle: carboxymethylcellulose (CMC)): 98 % of control and 92 % of control

COC(=O)c1cc2nccc3c4ccccc4n(c1=O)c23
T/C (endpoint: mean survival time, dose: 100.0 mg/kg/injection, schedule: Q04DX003 (ip), vehicle: alcohol): 103 % of control
T/C (endpoint: mean survival time, dose: 200.0 mg/kg/injection, schedule: Q04DX003 (ip), vehicle: alcohol): 97 % of control
T/C (endpoint: mean survival time, dose: 400.0 mg/kg/injection, schedule: Q04DX003 (ip), vehicle: alcohol): 98 % of control

O=C1CC2CCC(C1)N2CC1COc2ccccc2O1 (centres undefined)
T/C [3]: 100 % of control
T/C [4]: 120 % of control

C=CCC1CC2(C)C(CCC3C2CCC2(C)C(C(C)CCCC(C)C)CCC32)CC1O (centres undefined)
T/C (endpoint: mean survival time, dose: 100.0 mg/kg/injection, schedule: Q01DX009 (ip), vehicle: gum acacia): 87 % of control
T/C (endpoint: mean survival time, dose: 200.0 mg/kg/injection, schedule: Q01DX009 (ip), vehicle: gum acacia): 87 % of control
T/C (endpoint: mean survival time, dose: 400.0 mg/kg/injection, schedule: Q01DX009 (ip), vehicle: gum acacia): 104 % of control

CCOc1ccc(NC(=O)Oc2ccc(-c3ccccc3)cc2)cc1
T/C (endpoint: mean survival time, dose: 100.0 mg/kg/injection, schedule: Q01DX001 (ip), vehicle: saline with Tween-80): 93 % of control
T/C [5]: 100 % of control and 90 % of control
T/C [6]: 104 % of control and 106 % of control
T/C (endpoint: mean survival time, dose: 200.0 mg/kg/injection, schedule: Q01DX001 (ip), vehicle: saline with Tween-80): 91 % of control
T/C [7]: 87 % of control and 92 % of control
T/C [8]: 100 % of control and 101 % of control
T/C (endpoint: mean survival time, dose: 400.0 mg/kg/injection, schedule: Q01DX001 (ip), vehicle: saline with Tween-80): 89 % of control
T/C (endpoint: mean survival time, dose: 400.0 mg/kg/injection, schedule: Q01DX009 (ip), vehicle: saline with Tween-80): 97 % of control and 87 % of control
T/C [9]: 92 % of control

O=C(O)/C(S)=C/c1ccc2c(c1)OCO2
T/C [1]: 100 % of control
T/C [2]: 102 % of control
T/C [10]: 102 % of control

O=C1NC2C1C1c3ccccc3C2C12CC2 (centres undefined)
T/C (endpoint: mean survival time, dose: 100.0 mg/kg/injection, schedule: Q04DX002 (ip), vehicle: Klucel (hydroxypropylcellulose) (HPC)): 105 % of control
T/C (endpoint: mean survival time, dose: 200.0 mg/kg/injection, schedule: Q04DX002 (ip), vehicle: Klucel (hydroxypropylcellulose) (HPC)): 97 % of control
T/C (endpoint: mean survival time, dose: 400.0 mg/kg/injection, schedule: Q04DX002 (ip), vehicle: Klucel (hydroxypropylcellulose) (HPC)): 94 % of control

Brc1cc(Br)c(/C=C/c2c(Br)cc(Br)cc2Br)c(Br)c1
T/C (endpoint: mean survival time, dose: 100.0 mg/kg/injection, schedule: Q01DX009 (ip), vehicle: Klucel (hydroxypropylcellulose) (HPC)): 104 % of control
T/C (endpoint: mean survival time, dose: 200.0 mg/kg/injection, schedule: Q01DX009 (ip), vehicle: Klucel (hydroxypropylcellulose) (HPC)): 102 % of control
T/C (endpoint: mean survival time, dose: 400.0 mg/kg/injection, schedule: Q01DX009 (ip), vehicle: Klucel (hydroxypropylcellulose) (HPC)): 105 % of control

N=c1nc2n(cc1F)C1OC(CO)C(O)C1O2 (centres undefined)
T/C (endpoint: median survival time, dose: 200.0 mg/kg/injection, schedule: Q01DX005 (ip), vehicle: other): 163 % of control
T/C (endpoint: median survival time, dose: 400.0 mg/kg/injection, schedule: Q01DX005 (ip), vehicle: other): 163 % of control

CCOc1ccc(NC(C)=O)cc1
T/C (endpoint: mean survival time, dose: 100.0 mg/kg/injection, schedule: Q04DX003 (ip), vehicle: Klucel (hydroxypropylcellulose) (HPC)): 96 % of control
T/C (endpoint: mean survival time, dose: 200.0 mg/kg/injection, schedule: Q04DX003 (ip), vehicle: Klucel (hydroxypropylcellulose) (HPC)): 104 % of control
T/C (endpoint: mean survival time, dose: 400.0 mg/kg/injection, schedule: Q04DX003 (ip), vehicle: Klucel (hydroxypropylcellulose) (HPC)): 115 % of control

COc1ccc(O)c(/C=C\C=O)c1
T/C [1]: 100 % of control
T/C [2]: 100 % of control
T/C [10]: 106 % of control

O=C(O)[C@H](O)[C@@H](O)C(=O)O.[Ga]
T/C [3]: 106 % of control
T/C [4]: 100 % of control
T/C (endpoint: mean survival time, dose: 400.0 mg/kg/injection, schedule: Q01DX001 (ip), vehicle: saline): 104 % of control

O=NN(CCCl)C(=O)NC(=O)NCCCl
T/C (endpoint: mean survival time, dose: 1.0 mg/kg/injection, schedule: Q01DX001 (ip), vehicle: carboxymethylcellulose (CMC)): 112 % of control
T/C (endpoint: mean survival time, dose: 2.0 mg/kg/injection, schedule: Q01DX001 (ip), vehicle: carboxymethylcellulose (CMC)): 118 % of control
T/C (endpoint: mean survival time, dose: 4.0 mg/kg/injection, schedule: Q01DX001 (ip), vehicle: carboxymethylcellulose (CMC)): 122 % of control
T/C (endpoint: mean survival time, dose: 18.0 mg/kg/injection, schedule: Q01DX001 (ip), vehicle: carboxymethylcellulose (CMC)): 119 % of control

OCC1OC(n2ccc3c([Se])ncnc32)C(O)C1O (centres undefined)
T/C (endpoint: mean survival time, dose: 12.5 mg/kg/injection, schedule: Q01DX005 (ip), vehicle: saline): 119 % of control
T/C (endpoint: mean survival time, dose: 25.0 mg/kg/injection, schedule: Q01DX005 (ip), vehicle: saline): 122 % of control
T/C (endpoint: mean survival time, dose: 50.0 mg/kg/injection, schedule: Q01DX005 (ip), vehicle: saline): 115 % of control
T/C (endpoint: mean survival time, dose: 100.0 mg/kg/injection, schedule: Q01DX005 (ip), vehicle: saline): 122 % of control

O=C(CC(=O)Nc1ccc(C2=NCCCN2)cc1)Nc1ccc(C2=NCCCN2)cc1
T/C (endpoint: mean survival time, dose: 6.25 mg/kg/injection, schedule: Q01DX Z (ip), vehicle: water): 110 % of control
T/C (endpoint: mean survival time, dose: 12.5 mg/kg/injection, schedule: Q01DX Z (ip), vehicle: water): 113 % of control
T/C (endpoint: mean survival time, dose: 25.0 mg/kg/injection, schedule: Q01DX Z (ip), vehicle: water): 101 % of control
T/C (endpoint: mean survival time, dose: 50.0 mg/kg/injection, schedule: Q01DX Z (ip), vehicle: water): 104 % of control
T/C (endpoint: mean survival time, dose: 62.5 mg/kg/injection, schedule: Q01DX Z (ip), vehicle: water): 96 % of control
T/C (endpoint: mean survival time, dose: 125.0 mg/kg/injection, schedule: Q01DX Z (ip), vehicle: water): 102 % of control
T/C (endpoint: mean survival time, dose: 250.0 mg/kg/injection, schedule: Q01DX Z (ip), vehicle: water): 97 % of control

COC1OC2COC(c3ccccc3)OC2C(OS(=O)(=O)c2ccc(C)cc2)C1OC (centres undefined)
T/C [6]: 107 % of control
T/C [8]: 89 % of control
T/C [9]: 93 % of control

CC(N)C(=O)NC(C)C(=O)O (centres undefined)
T/C (endpoint: mean survival time, dose: 25.0 mg/kg/injection, schedule: Q01DX001 (ip), vehicle: Klucel (hydroxypropylcellulose) (HPC)): 97 % of control
T/C (endpoint: mean survival time, dose: 25.0 mg/kg/injection, schedule: Q01DX001 (ip), vehicle: saline): 102 % of control
T/C (endpoint: mean survival time, dose: 25.0 mg/kg/injection, schedule: Q04DX002 (ip), vehicle: saline): 102 % of control
T/C (endpoint: mean survival time, dose: 50.0 mg/kg/injection, schedule: Q01DX001 (ip), vehicle: Klucel (hydroxypropylcellulose) (HPC)): 97 % of control
T/C (endpoint: mean survival time, dose: 50.0 mg/kg/injection, schedule: Q01DX001 (ip), vehicle: saline): 97 % of control
T/C (endpoint: mean survival time, dose: 50.0 mg/kg/injection, schedule: Q04DX002 (ip), vehicle: saline): 96 % of control
T/C (endpoint: mean survival time, dose: 100.0 mg/kg/injection, schedule: Q01DX001 (ip), vehicle: Klucel (hydroxypropylcellulose) (HPC)): 97 % of control
T/C [3]: 93 % of control
T/C (endpoint: mean survival time, dose: 100.0 mg/kg/injection, schedule: Q04DX002 (ip), vehicle: saline): 102 % of control

CCCCNC(=O)Oc1ccc(C(=O)OCCC)cc1
T/C (endpoint: mean survival time, dose: 50.0 mg/kg/injection, schedule: Q01DX009 (ip), vehicle: saline with Tween-80): 102 % of control and 106 % of control
T/C (endpoint: mean survival time, dose: 100.0 mg/kg/injection, schedule: Q01DX009 (ip), vehicle: other): 110 % of control and 86 % of control
T/C [5]: 103 % of control and 104 % of control
T/C (endpoint: mean survival time, dose: 100.0 mg/kg/injection, schedule: Q04DX002 (ip), vehicle: other): 100 % of control and 101 % of control
T/C (endpoint: mean survival time, dose: 200.0 mg/kg/injection, schedule: Q01DX009 (ip), vehicle: other): 89 % of control
T/C [7]: 96 % of control and 103 % of control
T/C (endpoint: mean survival time, dose: 200.0 mg/kg/injection, schedule: Q04DX002 (ip), vehicle: other): 93 % of control and 105 % of control
T/C (endpoint: mean survival time, dose: 400.0 mg/kg/injection, schedule: Q01DX009 (ip), vehicle: other): 93 % of control and 90 % of control
T/C (endpoint: mean survival time, dose: 400.0 mg/kg/injection, schedule: Q04DX002 (ip), vehicle: other): 96 % of control and 92 % of control

C[N+](C)(C)c1ccc(/C=C2/CCCCC2=O)cc1
T/C (endpoint: mean survival time, dose: 12.5 mg/kg/injection, schedule: Q01DX009 (ip), vehicle: saline): 117 % of control
T/C (endpoint: mean survival time, dose: 12.5 mg/kg/injection, schedule: Q04DX003 (ip), vehicle: saline): 97 % of control
T/C (endpoint: mean survival time, dose: 25.0 mg/kg/injection, schedule: Q01DX009 (ip), vehicle: saline): 100 % of control
T/C (endpoint: mean survival time, dose: 25.0 mg/kg/injection, schedule: Q04DX003 (ip), vehicle: saline): 92 % of control
T/C (endpoint: mean survival time, dose: 50.0 mg/kg/injection, schedule: Q01DX009 (ip), vehicle: saline): 103 % of control
T/C (endpoint: mean survival time, dose: 50.0 mg/kg/injection, schedule: Q04DX003 (ip), vehicle: saline): 106 % of control
